Reference: US20070059632A1, “Method of manufacturing a semiconductor device” (priority 2003, published 2007)

Legend:
Format in all cases: physicochemical
[1] = Solubility of compound in safety solvent; conditions: safety solvent (PGMEA or EL) at 23° C.
Method: (1) Solubility of Compound in Safety Solvent
Each compound was tested for its solubility in safety solvent (PGMEA or EL) at 23° C. The solubility was rated as “A” when dissolved in an amount of 5% by weight or more, “B” when dissolved in an amount of 0.1% by weight or more but less than 5% by weight, and “C” when not dissolved in an amount of 0.1% by weight or more.

Alkali developability = test: Alkali developability; parameters: key: A: the resist film dissolved completely and disappeared; C: the resist film remained not dissolved even in a slight amount; conditions: tested on the corresponding polyphenol compound A before introducing the acid-dissociating group; film immersed in 2.38% aqueous TMAH for 10 s
Method: (5) Alkali Developability
A polyphenol compound A corresponding to each compound before introducing the acid-dissociating functional group was examined for its developability with an alkali developing solution.
A 10% by weight solution of each polyphenol compound A in PGMEA was spin-coated using a spin coater, to form a resist film of about 0.2 μm thick. After heating on a hot plate for 3 min at 110° C., the resist film was immersed in a 2.38% aqueous solution of TMAH for 10 s. The results were rated as “A” when the resist film dissolved completely and disappeared, and “C” when the resist film remained not dissolved even in a slight amount.

[2] = Inhibition of dissolution in alkali developing solution; parameters: key: A: no change was visually noticed in the state of film; C: the surface was roughened or a part of the film was lost because of dissolution; conditions: resist film immersed in 2.38% aqueous solution of TMAH for 3 min
Method: (3) Inhibition of Dissolution in Alkali Developing Solution
The resist film formed in the evaluation 2 was immersed in a developing solution (2.38% aqueous solution of TMAH) for 3 min. The results were rated as “A” when no change was visually noticed in the state of film, and “C” when the surface was roughened or a part of the film was lost because of dissolution.

| (5) Alkali developability (Alkali developability) | (3) Inhibition of dissolution in developing solution [2] | SMILES | (1) Solubility in safety solvent [1] |
| --- | --- | --- | --- |
| A | A | CC(C)(C)OC(=O)Oc1ccc(-c2cc(-c3ccc(OC(=O)OC(C)(C)C)cc3)cc(-c3ccc(OC(=O)OC(C)(C)C)cc3)c2)cc1 [Compound 14-4, reference compound] | A (dissolved in an amount of 5% by weight or more) |
| A | A | CC(C)(C)OC(=O)Oc1ccc(C(c2ccc(OC(=O)OC(C)(C)C)cc2)c2ccc(OC(=O)OC(C)(C)C)cc2)cc1 [Compound 14-3, reference compound] | A (dissolved in an amount of 5% by weight or more) |
| A | C | Cc1cc(C(C)(c2ccc(O)c(C)c2)c2ccc3ccccc3c2)ccc1O [Compound 14-5, 1-(2-naphthyl)-1,1-bis(3-methyl-4-hydroxyphenyl)ethane, reference compound] | A (dissolved in an amount of 5% by weight or more) |
| A | A | CCOC(C)Oc1ccc2c(c1)Oc1cc(O)ccc1C21Cc2cccc3cccc1c23 (stereo not drawn) [Compound 12-1] | A (dissolved in an amount of 5% by weight or more) |
| A |  | CC(C)(C)OC(=O)Oc1ccc(C(C)(C)c2ccc(OC(=O)OC(C)(C)C)cc2)cc1 [Compound 14-1, reference compound] | C (not dissolved in an amount of 0.1% by weight or more) |
| A |  | CC(C)(C)OC(=O)Oc1ccc(C2(c3ccc(OC(=O)OC(C)(C)C)cc3)CCCCC2)cc1 [Compound 14-2, reference compound] | C (not dissolved in an amount of 0.1% by weight or more) |

Second part, the compound before the results:

| SMILES | (5) Alkali developability (Alkali developability) | (3) Inhibition of dissolution in developing solution [2] | (1) Solubility in safety solvent [1] |
| --- | --- | --- | --- |
| CC1(c2ccc3ccccc3c2)c2ccc(O)cc2Oc2cc(OC3CCCCC3)ccc21 (stereo not drawn) [Compound 9-1] | A | A | A (dissolved in an amount of 5% by weight or more) |
| Oc1ccc(C2(c3ccc(OC4CCCCO4)cc3)Cc3cccc4cccc2c34)cc1 (stereo not drawn) [Compound 8-1] | A | A | A (dissolved in an amount of 5% by weight or more) |
| Cc1cc(C(C)(c2ccc(OC(=O)OC(C)(C)C)c(C)c2)c2ccc3ccccc3c2)ccc1O (stereo not drawn) [Compound 5-2] | A | A | A (dissolved in an amount of 5% by weight or more) |
| CCOC(C)Oc1ccc(C2(c3ccc(O)c(C4CCCCC4)c3)Cc3cccc4cccc2c34)cc1C1CCCCC1 (stereo not drawn) [Compound 8-3] | A | A | A (dissolved in an amount of 5% by weight or more) |
| CCOC(C)Oc1ccc(C(C)(c2ccc(O)c(C)c2)c2ccc3ccccc3c2)cc1C (stereo not drawn) [Compound 5-4] | A | A | A (dissolved in an amount of 5% by weight or more) |
| CC(C)(C)OC(=O)Oc1ccc(C(c2ccc(O)cc2)c2cccc3ccccc23)cc1 (stereo not drawn) [Compound 5-9] | A | A | A (dissolved in an amount of 5% by weight or more) |
| CCOC(C)Oc1ccc2c(c1)Oc1cc(O)ccc1C21c2ccccc2-c2ccccc21 (stereo not drawn) [Compound 11-3] | A | A | A (dissolved in an amount of 5% by weight or more) |
| CC(C)(C)OC(=O)Oc1ccc(C2(c3ccc(OC(=O)OC(C)(C)C)c(OC(=O)OC(C)(C)C)c3)c3ccccc3-c3ccccc32)cc1OC(=O)OC(C)(C)C [Compound 7-1] |  | A | B (dissolved in an amount of 0.1% by weight or more but less than 5% by weight) |
